For data set [1], the system named is Staphylococcus aureus. Kind of data set: Bactericidal activity against Staphylococcus aureus ATCC 25923 at 2 times MIC measured upto 1440 mins by time kill assay. The data set is classed as functional, organism-based.
Data set [2] relates to Klebsiella pneumoniae. Kind of data set: Bactericidal activity against Klebsiella pneumoniae ATCC 700603 at 2 times MIC measured upto 1440 mins by time kill assay. The data set is classed as functional, organism-based.
Data set [3] is described as follows: Toxicity in ip dosed BALB/c mouse assessed as hemorrhage in lung at LD50 dose by H and E staining based assay. Type of data set: organism-based. To be noted: in vivo.
Data set [4] concerns Escherichia coli. Put plainly: Antibacterial activity against Escherichia coli 780 incubated for 18 to 24 hrs by broth microdilution method. Type of data set: functional. To be noted: time 18-24 hrs. On the technique in general: Dilution methods test growth across graded concentrations, often in twofold steps.
In data set [5] the target is Chymotrypsin (Homo sapiens, UniProt Q99895+P17538+P40313+Q6GPI1). Put plainly: Stability of compound assessed as chymotrypsin (unknown origin) mediated compound degradation. Type of data set: ADME, protein assay.
The subject of data set [6] is Staphylococcus aureus. Put plainly: Antibacterial activity against Staphylococcus aureus ATCC 25923 infected in BALB/c mouse systemic infection model assessed as reduction in bacterial load in liver at 20 mg/kg, ip pre-infected for 2 hrs followed by compound addition and measured after 8 hrs postinfection. Type of data set: functional, organism-based. Particulars: time 6.0 hrs.

For data set [7], the system named is Klebsiella pneumoniae. Kind of data set: Durg resistance development in Klebsiella pneumoniae ATCC 700603 measured after 20 passage. Type of data set: functional, organism-based.
The test system of data set [8] is Cell membrane. Put plainly: Induction of cytoplasmic membrane rupture in Pseudomonas aeruginosa ATCC 27853 assessed as wrinkling at 2 times MIC incubated for 30 to 120 mins by SEM analysis. Type of data set: subcellular. To be noted: time 30-120 min.
Data set [9] concerns Cell membrane. Put plainly: Induction of outer membrane permeabilization in Escherichia coli ATCC 25922 assessed as increase in fluorescence intensity incubated for 1 min by NPN dye based microplate reader assay. The data set is classed as subcellular.
Data set [10] is described as follows: Hemolytic activity in mouse erythrocyte incubated for 1 hr by microplate reader assay. The data set is classed as toxicity, cell-based.
Data set [11] relates to Klebsiella pneumoniae. Put plainly: Antibiofilm activity against Klebsiella pneumoniae ATCC 700603 assessed as eradication of preformed biofilms incubated for 24 hrs by crystal violet staining based assay. Type of data set: functional, organism-based.
The test system of data set [12] is Klebsiella pneumoniae. Put plainly: Antibacterial activity against Klebsiella pneumoniae ATCC 700603 infected in BALB/c mouse lung infection model assessed as removal of bacterial load at 5 mg/kg, ip administered twice daily for 3 days and measured after 6 days. Type of data set: functional. To be noted: time 9 day.
Data set [13] concerns Klebsiella pneumoniae. Put plainly: Antibacterial activity against Klebsiella pneumoniae ATCC 700603 infected in BALB/c mouse lung infection model assessed as increase in mouse survival at 5 mg/kg, ip administered twice daily for 3 days and measured for 7 days. Type of data set: functional, organism-based. To be noted: time 10.0 day.
Data set [14] concerns Bacillus subtilis. Kind of data set: Antibacterial activity against Bacillus subtilis ATCC 23857 incubated for 18 to 24 hrs by broth microdilution method. The data set is classed as functional. Particulars: time 18-24 hrs.
The subject of data set [15] is Escherichia coli. Put plainly: Antibacterial activity against Escherichia coli 25922 assessed as interaction with LPS by measuring bacterial mortality at 2 times MIC preincubated with LPS for 1 hr followed by bacterial addition and measured after overnight by microplate reader assay. Type of data set: functional, organism-based.
Data set [16] deals with Escherichia coli. Put plainly: Antibacterial activity against Escherichia coli ATCC 25922 assessed as fold increase in MIC preincubated with serum for 6 hrs followed by 15 mins inactivation prior to bacteria addition and measured after 18 to 24 hrs. The data set is classed as functional. To be noted: time 18-24 hrs.
For data set [17], the system named is Staphylococcus aureus. Kind of data set: Antibacterial activity against Staphylococcus aureus ATCC 25923 infected in BALB/c mouse systemic infection model assessed as reduction in bacterial load in lung at 20 mg/kg, ip pre-infected for 2 hrs followed by compound addition and measured after 8 hrs postinfection. Type of data set: functional, organism-based. To be noted: time 6.0 hrs.

A short description of data set [18]: Toxicity in ip dosed BALB/c mouse assessed as inflammatory cell infiltration in kidney at LD50 dose by H and E staining based assay. The data set is classed as organism-based. To be noted: in vivo.
In data set [19] the test system is Cell membrane. Put plainly: Induction of cytoplasmic membrane rupture in Staphylococcus aureus ATCC 25923 assessed as adhesion at 2 times MIC incubated for 30 to 120 mins by SEM analysis. To be noted: time 30-120 min. Type of data set: subcellular.
In data set [20] the test system is Klebsiella pneumoniae. Put plainly: Antibacterial activity against Klebsiella pneumoniae ATCC 700603 infected in BALB/c mouse lung infection model assessed as alveolar dilation at 5 mg/kg, ip administered twice daily for 3 days and measured after 7 days. The data set is classed as functional, organism-based. Particulars: time 10.0 day.
Data set [21] has as its system Staphylococcus aureus. Kind of data set: Antibacterial activity against Staphylococcus aureus ATCC 25923 infected in BALB/c mouse systemic infection model assessed as reduction in bacterial load in liver at 21.21 mg/kg, ip pre-infected for 2 hrs followed by compound addition and measured after 8 hrs postinfection. The data set is classed as functional, organism-based. To be noted: time 6.0 hrs.

A short description of data set [22]: Toxicity in ip dosed BALB/c mouse assessed as kidney edema at LD50 dose by H and E staining based assay. Type of data set: organism-based. Particulars: in vivo.
Data set [23] is described as follows: Toxicity in ip dosed BALB/c mouse assessed as effect on heart at LD50 dose by H and E staining based assay. The data set is classed as organism-based. To be noted: in vivo.
Data set [24] can be described thus: Toxicity in ip dosed BALB/c mouse assessed as liver bleeding at LD50 dose by H and E staining based assay. The data set is classed as organism-based. Particulars: in vivo.
The test system of data set [25] is Escherichia coli. Kind of data set: Antibacterial activity against Escherichia coli ATCC 25922 preincubated with serum for 6 hrs followed by 15 mins inactivation prior to bacteria addition and measured after 18 to 24 hrs. Type of data set: functional, organism-based. To be noted: time 18-24 hrs.
Data set [26] in a line: Toxicity in ip dosed BALB/c mouse assessed as effect on lung at LD50 dose by H and E staining based assay. Particulars: in vivo. The data set is classed as organism-based.
The test system of data set [27] is Staphylococcus aureus. Kind of data set: Antibacterial activity against Staphylococcus aureus ATCC 25923 infected in BALB/c mouse systemic infection model assessed as improved alveoli dilation at 21.21 mg/kg, ip pre-infected for 2 hrs followed by compound addition and measured after 8 hrs postinfection. Type of data set: functional, organism-based. Particulars: time 6.0 hrs.

For data set [28], the system named is Klebsiella pneumoniae. Put plainly: Antibacterial activity against Klebsiella pneumoniae ATCC 700603 infected in BALB/c mouse lung infection model assessed as increase in mouse survival at 5.31 mg/kg, ip administered twice daily for 3 days and measured for 7 days. The data set is classed as functional, organism-based. To be noted: time 10.0 day.
The subject of data set [29] is Klebsiella pneumoniae. Put plainly: Antibacterial activity against Klebsiella pneumoniae ATCC 700603 infected in BALB/c mouse lung infection model assessed as increased healing at 5.31 mg/kg, ip administered twice daily for 3 days and measured for 7 days. Type of data set: functional, organism-based. Particulars: time 10.0 day.
Data set [30] concerns Staphylococcus aureus. Kind of data set: Bactericidal activity against Staphylococcus aureus ATCC 25923 at 2 times MIC within 120 mins by time kill assay. Type of data set: functional, organism-based.
In data set [31] the test system is Staphylococcus aureus. Put plainly: Antibacterial activity against Staphylococcus aureus ATCC 25923 in presence of MgCl2. The data set is classed as functional, organism-based.
Data set [32] relates to Staphylococcus aureus. Kind of data set: Antibacterial activity against Staphylococcus aureus ATCC 25923 infected in BALB/c mouse systemic infection model assessed as reduction in bacterial load in spleen at 21.21 mg/kg, ip pre-infected for 2 hrs followed by compound addition and measured after 8 hrs postinfection. Type of data set: functional, organism-based. Particulars: time 6.0 hrs.

Data set [33] concerns Staphylococcus aureus. Kind of data set: Antibacterial activity against Staphylococcus aureus ATCC 25923 in presence of KCl. Type of data set: functional, organism-based.
The test system of data set [34] is Staphylococcus aureus. Kind of data set: Antibacterial activity against Staphylococcus aureus ATCC 25923 infected in BALB/c mouse systemic infection model assessed as reduction in bacterial load in lung at 21.21 mg/kg, ip pre-infected for 2 hrs followed by compound addition and measured after 8 hrs postinfection. Particulars: time 6.0 hrs. Type of data set: functional, organism-based.

The nature of data set [35]: Toxicity in ip dosed BALB/c mouse assessed as kidney bleeding at LD50 dose by H and E staining based assay. The data set is classed as organism-based. To be noted: in vivo.
In data set [36] the test system is Escherichia coli. Kind of data set: Antibacterial activity against Escherichia coli ATCC 25922 in presence of KCl. The data set is classed as functional, organism-based.
In data set [37] the test system is Escherichia coli. Kind of data set: Antibacterial activity against Escherichia coli ATCC 25922 in presence of FeCl3. Type of data set: functional, organism-based.
Data set [38] is described as follows: Toxicity in ip dosed BALB/c mouse assessed as effect on spleen at LD50 dose by H and E staining based assay. Type of data set: organism-based. To be noted: in vivo.

The structures appear in SMILES notation. ≈ marks a conversion by molar mass, not a printed value. Calls of active or inactive are those of the source. No cut-off for these calls is given here. Non-standard residues stand in square brackets, D forms with d. Residues, ends and D or L forms follow the SMILES beside them. Bip = N[C@@H](Cc1ccc(-c2ccccc2)cc1)C(=O)O; pY = N[C@@H](Cc1ccc(OP(=O)(O)O)cc1)C(=O)O

Broadly, the MIC is the lowest concentration found to suppress growth. As to `CC(C)C[C@H](NC(=O)[C@H](CC(C)C)NC(=O)[C@H](Cc1ccc(O)cc1)NC(=O)[C@H](CCCCN)NC(=O)[C@H](CC(C)C)NC(=O)[C@H](CCCNC(=N)N)NC(=O)[C@H](CCCCN)NC(=O)[C@H](Cc1ccc(-c2ccccc2)cc1)NC(=O)[C@H](CC(C)C)NC(=O)CN)C(N)=O` (H-GL[Bip]KRLKYLL-NH2), the result in data set [1], in [2], in data set [6], in data set [8], in data set [17] and in data set [19] was Active. Also, the outcome in data set [20] was Active. Besides, the Activity entry in data set [3] was “Toxic”; in data set [9], “Dose-dependent-effect”; in data set [11], “Dose-dependent-effect; Superior Activity Compared To Polymyxin B And Vancomycin”; in data set [12], 100%; in data set [13] it was “Active; Comparable Activity To Polymyxin B”; in data set [15] it was “Active; Activity Comparable To Polymyxin B”. Further, the Activity entry in data set [18] is “Toxic”. The minimal inhibitory concentration (MIC) in data set [4] is 8 µM (≈ 10.6 µg/mL); in data set [14] it was 4 µM (≈ 5.3 µg/mL). For the same molecule, the Stability entry in data set [5] is given as “Stable”. For the same molecule, the outcome in [7] was inactive. Also, the MHC in data set [10] is 27.38 µM. Besides, the “fold change (FC)” value in data set [16] is listed as 2.

Turning to `CC(C)C[C@H](NC(=O)[C@H](CC(C)C)NC(=O)[C@H](Cc1ccc(OP(=O)(O)O)cc1)NC(=O)[C@H](CCCCN)NC(=O)[C@H](CC(C)C)NC(=O)[C@H](CCCNC(=N)N)NC(=O)[C@H](CCCCN)NC(=O)[C@H](Cc1ccc(-c2ccccc2)cc1)NC(=O)[C@H](CC(C)C)NC(=O)CN)C(N)=O` (H-GL[Bip]KRLK[pY]LL-NH2), the MIC in [4] and in data set [14] was 8 µM (≈ 11.2 µg/mL) in each case. Further, the Stability entry in data set [5] is listed as “Stable”. The result in [21], in data set [8], in data set [27], in data set [29], in data set [30] and in data set [32] was Active. Besides, the result in data set [34] and in [19] was Active. In data set [7], the outcome was inactive. In addition, the Activity entry in data set [22] is “Toxic”; in [9] it was “Dose-dependent-effect”; in data set [23], “Toxic”; in data set [11], “Dose-dependent-effect; Superior Activity Compared To Polymyxin B And Vancomycin”; in data set [24] it was “Toxic”; in [25], “Active; Antibacterial Activity Remained Unaffected”. In addition, the Activity entry was “Toxic” in [26]; “Active; Comparable Activity To Polymyxin B” in data set [28]; “Active; Activity Comparable To Polymyxin B” in data set [15]; “Active; Compound Showed Excellent Tolerance Towards Salt Environment” in data set [31]; “Active; Compound Showed Excellent Tolerance Towards Salt Environment” in [33]; “Toxic” in data set [35]. Further, the Activity entry in data set [36] was “Active; Compound Showed Excellent Tolerance Towards Salt Environment”; in data set [37], “Active; Compound Showed Excellent Tolerance Towards Salt Environment”; in data set [38], “Toxic”. This molecule had an MHC in data set [10] of over 256 µM.

The record behind these values is ChEMBL document CHEMBL6092167, “Phosphorylation as an Effective Tool to Improve Stability and Reduce Toxicity of Antimicrobial Peptides” (J Med Chem, 2024).
